In ChEMBL document CHEMBL1134332, “Design of remarkably simple, yet potent urea-based inhibitors of glutamate carboxypeptidase II (NAALADase)” (J Med Chem, 2001):
Active and inactive are the calls of the source. No cut-off for these calls is given here. Peptide text beside a SMILES is read from it.

What was measured:
[1] = target: Glutamate carboxypeptidase 2 (Rattus norvegicus) (UniProt P70627); test: Percentage inhibition at 1 uM against rat Glutamate carboxypeptidase II using a substrate concentration of 5 uM
[2] = target: T1, Glutamate carboxypeptidase 2 (Rattus norvegicus, UniProt P70627); test: Inhibitory activity against expressed rat Glutamate carboxypeptidase II, using a substrate concentration of 5 uM
[3] = target: Glutamate carboxypeptidase 2 (Rattus norvegicus) (UniProt P70627); test: Percentage inhibition at 1 uM; IA means inactive
[4] = target: T1, Glutamate carboxypeptidase 2; test: Inhibitory activity against expressed rat Glutamate carboxypeptidase IIusing a substrate concentration of 5 uM
[5] = target: Glutamate carboxypeptidase 2 (Rattus norvegicus) (UniProt P70627); test: Percentage inhibition at 100 uM
[6] = target: Glutamate carboxypeptidase 2 (Rattus norvegicus) (UniProt P70627); test: Percentage inhibition at 1 uM against rat Glutamate carboxypeptidase II, using a substrate concentration of 5 uM

Glutamate carboxypeptidase 2 (Rattus norvegicus), sequence (P70627 whole entry, looked up): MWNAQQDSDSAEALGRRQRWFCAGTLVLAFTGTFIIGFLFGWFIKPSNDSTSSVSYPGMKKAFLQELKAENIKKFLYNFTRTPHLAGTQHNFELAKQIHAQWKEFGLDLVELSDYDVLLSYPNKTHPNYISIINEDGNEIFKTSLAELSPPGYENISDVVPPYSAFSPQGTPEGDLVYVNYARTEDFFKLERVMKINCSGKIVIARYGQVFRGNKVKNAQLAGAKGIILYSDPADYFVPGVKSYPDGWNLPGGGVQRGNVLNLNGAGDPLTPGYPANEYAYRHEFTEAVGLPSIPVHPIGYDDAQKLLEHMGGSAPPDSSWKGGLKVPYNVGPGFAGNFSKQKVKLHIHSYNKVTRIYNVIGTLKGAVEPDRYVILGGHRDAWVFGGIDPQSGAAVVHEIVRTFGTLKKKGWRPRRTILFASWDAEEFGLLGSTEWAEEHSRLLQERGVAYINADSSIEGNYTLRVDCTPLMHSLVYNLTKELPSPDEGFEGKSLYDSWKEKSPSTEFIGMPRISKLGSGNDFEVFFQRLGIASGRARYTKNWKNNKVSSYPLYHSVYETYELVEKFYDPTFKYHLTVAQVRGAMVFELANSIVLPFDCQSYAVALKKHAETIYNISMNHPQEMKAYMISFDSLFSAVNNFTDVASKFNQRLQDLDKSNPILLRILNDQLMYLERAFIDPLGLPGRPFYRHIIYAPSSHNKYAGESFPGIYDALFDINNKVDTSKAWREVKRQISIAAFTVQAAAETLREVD
T1 sequence (P70627 whole entry): as the sequence (P70627 whole entry, looked up) above

How did the inhibition [1] turn out when `O=C(O)CC[C@H](NC(=O)NCC(=O)O)C(=O)O` was run?
The inhibition was 46%.

Which IC50 [2] does the source give for `N[C@@H](CCC(=O)O)C(=O)N[C@@H](CCC(=O)O)C(=O)O` (H-Glu-Glu-OH) here?
The IC50 was 750 nM.

How did the IC50 [2] turn out when `O=C(O)CCC(CP(=O)(O)O)C(=O)O` (stereo unspecified) was run?
Its IC50 is 5.1 nM.

`O=C(N[C@@H](CS)C(=O)O)N[C@@H](CS)C(=O)O` was tested. Which IA [3] did it give?
Its IA is “inactive”.

Which IC50 [4] does the source give for `N[C@@H](CC(=O)O)C(=O)N[C@@H](CCC(=O)O)C(=O)O` (H-Asp-Glu-OH) here?
Its IC50 is 2400 nM.

`CC(C)(C)SCC(NC(=O)N[C@@H](CCC(=O)O)C(=O)O)C(=O)O` (stereo partly specified) was tested. Which IC50 [2] did it give?
Its IC50 is 29 nM.

With `O=C(O)CC[C@H](CP(=O)(O)C[C@@H](CCC(=O)O)C(=O)O)C(=O)O` as the compound, how does the IC50 [2] read?
The IC50 was 21.7 nM.

Which inhibition [5] does the source give for `N[C@@H](CC(=O)O)C(=O)N[C@@H](CC(=O)O)C(=O)O` (H-Asp-Asp-OH) here?
Its inhibition is 42%.

`O=C(O)CC[C@H](NC(=O)N[C@@H](CS)C(=O)O)C(=O)O` was tested. Which IC50 [2] did it give?
The IC50 was 6.9 nM.

`CC(C)(C)NC(=O)N[C@@H](CCC(=O)O)C(=O)O` was tested. Which inhibition [1] did it give?
Its inhibition is 10%.

How did the inhibition [6] turn out when `O=C(O)CC[C@H](NC(=O)C(=O)N[C@@H](CCC(=O)O)C(=O)O)C(=O)O` was run?
Its inhibition is 9%.
